Data set [1] in a line: Locomotor behavior and cognitive performance of the studied animals after CBD administration. Type of data set: in vivo, rat. Conditions: rats, single oral dose of 10 mg/kg CBD.
On the set-up of data set [2]: method as in PMID 34330718, PMID 28861484. Conditions: phase I CBD metabolites; cited from earlier work.

The values that follow come from paper PMC12250628, “Pharmacokinetics of Cannabidiol in Rat Brain Tissue After Single-Dose Administration of Different Formulations” (Molecules, 2025).

Consider `C=C(C)[C@@H]1CCC(C)=C[C@H]1c1c(O)cc(CCCCC)cc1O` [CBD, cannabidiol], for which the “impact on locomotor behavior and cognitive performance” value in data set [1] was “no negative impacts on locomotor behavior and cognitive performance”. `C=C(C)[C@@H]1CCC(C(=O)O)=C[C@H]1c1c(O)cc(CCCCC)cc1O` [Carrier 7-COOH-CBD, 7-carboxy-cannabidiol]: the pharmacological activity entry in data set [2] is given as “does not exhibit such activity anymore”. Regarding `C=C(C)[C@@H]1CCC(CO)=C[C@H]1c1c(O)cc(CCCCC)cc1O` [Carrier 7-OH-CBD, 7-hydroxy-cannabidiol], the pharmacological activity entry in data set [2] is recorded as “pharmacologically active”.
